According to patent US6914045B2, “Glycopeptide antibiotics” (Wyeth Holdings Corporation, priority 2001, dated 2005):
In brackets after ≈: the same amount, converted by molar mass.

Legend:
Assay in all cases: in vitro antibacterial evaluation, MIC by broth dilution
Type in all cases: cell-based
Staphylococcus sp. = details: broth dilution, 18 hours at 35° C.
Procedure, shortened: (§1)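 Broth dilution per NCCLS standard M7-A2 in Muller-Hinton II […], with an inoculum of 5×10^5 CFU/mL and antibiotic spanning 64-0.06 μg/mL. The MIC is the lowest concentration that inhibits growth of the organism.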

Escherichia coli = details: 18 hours at 35° C., strain ATCC 25922
Procedure, shortened: as §1

Streptococcus sp. = details: broth dilution, 18 hours at 35° C.
Procedure, shortened: as §1

Enterococcus sp. = details: broth dilution, 18 hours at 35° C.
Procedure, shortened: as §1

MIC Coagulase Negative Staphylococcus (GC 4547) (Staphylococcus sp.): 2 µg/mL (≈ 1.4 µM)
MIC Coagulase Negative Staphylococcus (GC 4548) (Staphylococcus sp.): 2 µg/mL (≈ 1.4 µM)
MIC Coagulase Negative Staphylococcus (GC 4549) (Staphylococcus sp.): 1 µg/mL (≈ 0.7 µM)
MIC Coagulase Negative Staphylococcus (GC 4551) (Staphylococcus sp.): 8 µg/mL (≈ 5.6 µM)
MIC Coagulase Negative Staphylococcus (ID-3941) (Staphylococcus sp.): 1 µg/mL (≈ 0.7 µM)
MIC Staphylococcus aureus (ATCC 29213) (Staphylococcus sp.): 4 µg/mL (≈ 2.8 µM)
MIC Staphylococcus aureus (GC 1131) (Staphylococcus sp.): 4 µg/mL (≈ 2.8 µM)
MIC Staphylococcus aureus (GC 4541) (Staphylococcus sp.): 4 µg/mL (≈ 2.8 µM)
MIC Staphylococcus aureus (GC 4542) (Staphylococcus sp.): 8 µg/mL (≈ 5.6 µM)
MIC Staphylococcus aureus (GC 4544) (Staphylococcus sp.): 8 µg/mL (≈ 5.6 µM)
MIC Staphylococcus aureus (GC 4545) (Staphylococcus sp.): 4 µg/mL (≈ 2.8 µM)
MIC Staphylococcus aureus-SMITH (GC 4543) (Staphylococcus sp.): 4 µg/mL (≈ 2.8 µM)
MIC Coagulase Negative Staphylococcus (GC 4547) (Staphylococcus sp.; strain GC 4547): 2 µg/mL (≈ 1.4 µM)
MIC Coagulase Negative Staphylococcus (GC 4548) (Staphylococcus sp.; strain GC 4548): 2 µg/mL (≈ 1.4 µM)
MIC Coagulase Negative Staphylococcus (GC 4549) (Staphylococcus sp.; strain GC 4549): 1 µg/mL (≈ 0.7 µM)
MIC Coagulase Negative Staphylococcus (GC 4551) (Staphylococcus sp.; strain GC 4551): 8 µg/mL (≈ 5.6 µM)
MIC Coagulase Negative Staphylococcus (ID-3941) (Staphylococcus sp.; strain ID-3941): 1 µg/mL (≈ 0.7 µM)
MIC Staphylococcus aureus-SMITH (GC 4543) (Staphylococcus sp.; strain SMITH GC 4543): 4 µg/mL (≈ 2.8 µM)
MIC Staphylococcus aureus (ATCC 29213) (Staphylococcus sp.; strain ATCC 29213): 4 µg/mL (≈ 2.8 µM)
MIC Staphylococcus aureus (GC 1131) (Staphylococcus sp.; strain GC 1131): 4 µg/mL (≈ 2.8 µM)
MIC Staphylococcus aureus (GC 4541) (Staphylococcus sp.; strain GC 4541): 4 µg/mL (≈ 2.8 µM)
MIC Staphylococcus aureus (GC 4542) (Staphylococcus sp.; strain GC 4542): 8 µg/mL (≈ 5.6 µM)
MIC Staphylococcus aureus (GC 4544) (Staphylococcus sp.; strain GC 4544): 8 µg/mL (≈ 5.6 µM)
MIC Staphylococcus aureus (GC 4545) (Staphylococcus sp.; strain GC 4545): 4 µg/mL (≈ 2.8 µM)
MIC Escherichia coli (ATCC 25922) (Escherichia coli): >64 µg/mL
MIC Streptococcus agalactiae (GC 4564) (Streptococcus sp.; Streptococcus agalactiae (GC 4564)): 2 µg/mL (≈ 1.4 µM)
MIC Streptococcus pneumoniae (GC 4565) (Streptococcus sp.; Streptococcus pneumoniae (GC 4565)): <0.5 µg/mL
MIC Streptococcus pyogenes (ID-3187) (Streptococcus sp.; Streptococcus pyogenes (ID-3187)): 2 µg/mL (≈ 1.4 µM)
MIC Streptococcus agalactiae (GC 4564) (Streptococcus sp.; strain GC 4564): 2 µg/mL (≈ 1.4 µM)
MIC Streptococcus pneumoniae (GC 4565) (Streptococcus sp.; strain GC 4565): <0.5 µg/mL
MIC Streptococcus pyogenes (ID-3187) (Streptococcus sp.; strain ID-3187): 2 µg/mL (≈ 1.4 µM)
MIC Enterococcus avium (GC 4558) (Enterococcus sp.; Enterococcus avium (GC 4558)): 32 µg/mL (≈ 22.4 µM)
MIC Enterococcus faecalis (ATCC 29212) (Enterococcus sp.; Enterococcus faecalis (ATCC 29212)): 32 µg/mL (≈ 22.4 µM)
MIC Enterococcus faecalis (GC 2242) (Enterococcus sp.; Enterococcus faecalis (GC 2242)): 16 µg/mL (≈ 11.2 µM)
MIC Enterococcus faecalis (GC 4552) (Enterococcus sp.; Enterococcus faecalis (GC 4552)): 64 µg/mL (≈ 44.8 µM)
MIC Enterococcus faecalis (GC 4553) (Enterococcus sp.; Enterococcus faecalis (GC 4553)): 32 µg/mL (≈ 22.4 µM)
MIC Enterococcus faecalis (GC 4554) (Enterococcus sp.; Enterococcus faecalis (GC 4554)): 64 µg/mL (≈ 44.8 µM)
MIC Enterococcus faecium (GC 2243) (Enterococcus sp.; Enterococcus faecium (GC 2243)): 32 µg/mL (≈ 22.4 µM)
MIC Enterococcus faecium (GC 4556) (Enterococcus sp.; Enterococcus faecium (GC 4556)): 32 µg/mL (≈ 22.4 µM)
MIC Enterococcus faecium (GC 4557) (Enterococcus sp.; Enterococcus faecium (GC 4557)): 2 µg/mL (≈ 1.4 µM)
MIC Enterococcus faecalis (ATCC 29212) (Enterococcus sp.; strain ATCC 29212): 32 µg/mL (≈ 22.4 µM)
MIC Enterococcus faecalis (GC 2242) (Enterococcus sp.; strain GC 2242): 16 µg/mL (≈ 11.2 µM)
MIC Enterococcus faecium (GC 2243) (Enterococcus sp.; strain GC 2243): 32 µg/mL (≈ 22.4 µM)
MIC Enterococcus faecalis (GC 4552) (Enterococcus sp.; strain GC 4552): 64 µg/mL (≈ 44.8 µM)
MIC Enterococcus faecalis (GC 4553) (Enterococcus sp.; strain GC 4553): 32 µg/mL (≈ 22.4 µM)
MIC Enterococcus faecalis (GC 4554) (Enterococcus sp.; strain GC 4554): 64 µg/mL (≈ 44.8 µM)
MIC Enterococcus faecium (GC 4556) (Enterococcus sp.; strain GC 4556): 32 µg/mL (≈ 22.4 µM)
MIC Enterococcus faecium (GC 4557) (Enterococcus sp.; strain GC 4557): 2 µg/mL (≈ 1.4 µM)
MIC Enterococcus avium (GC 4558) (Enterococcus sp.; strain GC 4558): 32 µg/mL (≈ 22.4 µM)
Compound: CC(c1ccccc1)C1NC(=O)CNC(=O)C(CO)NC(=O)C(C(O)C2CNC(=N)N2C2OC(CO)C(O)C(O)C2O)NC(=O)C(C(O)C2CNC(=N)N2)NC(=O)C(Cc2ccc(OC3OC(COC(=O)OCc4ccccc4)C(OC4OC(CO)C(O)C(O)C4O)C(O)C3O)cc2)NC1=O (stereo not drawn) [Example 101, Cyclo[glycyl-β-methylphenylalanyl-O-[4-O-hexopyranosyl-6-O-[(phenylmethoxy)carbonyl]-hexopyranosyl]tyrosyl-3-(2-iminoimidazolidin-4-yl)seryl-3-(3-hexopyranosyl-2-iminoimidazolidin-4-yl)serylseryl]]
MIC Staphylococcus haemolyticus (GC 4546) (Staphylococcus sp.): 4 µg/mL (≈ 2.8 µM)
MIC Staphylococcus haemolyticus (GC 4546) (Staphylococcus sp.; strain GC 4546): 4 µg/mL (≈ 2.8 µM)
